Source: US12376590B2, “Compositions comprising pyridine carboxylate herbicides and azole carboxylate safeners” (Corteva Agriscience LLC, priority 2018, dated 2025)

What was measured:
Assay in all cases: Greenhouse postemergence herbicidal safening trial, visual injury after 20-22 d
Conditions in all cases: applied alone
[1] = system: Canada thistle (CIRAR); assay type: in vivo, Cirsium arvense
From the text: (§1) Greenhouse Trial Methodology—Evaluation of Postemergence Herbicidal Safening in Crops
(§2) Seeds of the desired test plant species were planted in a 90:10% v/v (volume/volume) mixture of PRO-MIX® BX (Premier Tech Horticulture, Quakertown, PA, USA) and PROFILE® GREENS GRADE™ (Profile Products LLC, Buffalo Grove, IL, USA) planting mixture, which typically has a pH of 5.2 to 6.2 and an organic matter content of at least 50 percent, in plastic pots with a surface area of 103.2 square centimeters (cm^2). When required to ensure good germination and healthy plants, a fungicide treatment and/or other chemical or physical treatment was applied. The plants were grown for 7-36 days (d) in a greenhouse with an approximate 14-hour (h) photo-period which was maintained at about 23° C. during the day and 22° C. during the night. Nutrients and water were added on a regular basis and supplemental lighting was provided with overhead metal halide 1000-Watt lamps as necessary. The plants were employed for testing when they reached the second or third true leaf stage.
(§3) Emulsifiable concentrates of each of each pyridine carboxylate herbicide (Compound A or Compound B) were prepared at 100 grams acid equivalent per liter (g ae/L). An aliquot of each emulsifiable concentrate was placed in a 25 mL glass vial and diluted with an aqueous mixture of 1.25% (v/v) ACTIROB® B esterified rapeseed oil (Bayer Crop Science, Research Triangle Park, NC, USA) or MSO® Concentrate with LECI-TECH® methylated soybean oil (Loveland Products, Loveland, CO, USA) to obtain concentrated stock solutions at the highest application rate for each herbicide, based upon a 12 milliliter (mL) application volume at a rate of 187 liters per hectare (L/ha). The concentrated stock solutions were further diluted with an aqueous mixture of 1.25% v/v ACTIROB® B or MSO® Concentrate with LECI-TECH® to obtain stock solutions at reduced application rates for each herbicide. Spray solutions of the herbicide combinations (Compound A or Compound B plus safener) were prepared by adding weighed amounts or aliquots of the azole carboxylate safener to the stock solutions of Compound A or Compound B to form 12-mL spray solutions in two-way combinations.
(§4) The spray solutions were applied to the plant material with an overhead Mandel track sprayer equipped with 8002E nozzles calibrated to deliver 187 L/ha over an application area of 0.503 square meters (m^2) at a spray height of 18 inches (43 centimeters (cm)) above the average plant canopy. Control plants were sprayed in the same manner with the solvent blank. All herbicide (component a) application rates are given as “g ae/ha” and all safener (component b) application rates are given as “g ai/ha.”
(§5) The treated plants and control plants were placed in a greenhouse as described above and watered by sub-irrigation to prevent wash-off of the test compounds. After 20-22 d, the condition of the test plants as compared with that of the control plants was determined visually and scored on a scale of 0 to 100 percent where 0 corresponds to no injury and 100 corresponds to complete kill.

[2] = system: maize (ZEAMX); assay type: in vivo, Zea mays
From the text: as §1, §2, §3, §4, §5

[3] = system: giant foxtail (SETFA); assay type: in vivo, Setaria faberi
From the text: as §1, §2, §3, §4, §5

[4] = system: common rice (ORYSA); assay type: in vivo, Oryza sativa
From the text: as §1, §2, §3, §4, §5

[5] = system: Italian ryegrass (LOLMU); assay type: in vivo, Lolium multiflorum
From the text: as §1, §2, §3, §4, §5

[6] = system: herbicide-resistant kochia (KCHSC-R); assay type: in vivo, Kochia scoparia
From the text: as §1, §2, §3, §4, §5

[7] = system: kochia (KCHSC); assay type: in vivo, Kochia scoparia
From the text: as §1, §2, §3, §4, §5

[8] = system: Chinese sprangletop (LEFCH); assay type: in vivo, Leptochloa chinensis
From the text: as §1, §2, §3, §4, §5

[9] = system: wild oat (AVEFA); assay type: in vivo, Avena fatua
From the text: as §1, §2, §3, §4, §5

[10] = system: ivyleaf morningglory (IPOHE); assay type: in vivo, Ipomoea hederacea
From the text: as §1, §2, §3, §4, §5

[11] = system: barnyardgrass (ECHCG); assay type: in vivo, Echinochloa crus-galli
From the text: as §1, §2, §3, §4, §5

[12] = system: common lambsquarters (CHEAL); assay type: in vivo, Chenopodium album L.
From the text: as §1, §2, §3, §4, §5

[13] = system: Canada horseweed (ERICA); assay type: in vivo, Erigeron canadensis
From the text: as §1, §2, §3, §4, §5

[14] = system: wild buckwheat (POLCO); assay type: in vivo, Polygonum convolvulus
From the text: as §1, §2, §3, §4, §5

[15] = system: large crabgrass (DIGSA); assay type: in vivo, Digitaria sanguinalis
From the text: as §1, §2, §3, §4, §5

[16] = system: winter rape (BRSNW); assay type: in vivo, Brassica napus
From the text: as §1, §2, §3, §4, §5

[17] = system: pigweed (AMARE); assay type: in vivo, Amaranthus retroflexus
From the text: as §1, §2, §3, §4, §5

[18] = system: common sunflower (HELAN); assay type: in vivo, Helianthus annuus
From the text: as §1, §2, §3, §4, §5

[19] = system: Johnson grass (SORHA); assay type: in vivo, Sorghum halepense
From the text: as §1, §2, §3, §4, §5

[20] = system: winter wheat (TRZAW); assay type: in vivo, Triticum aestivum
From the text: as §1, §2, §3, §4, §5

[21] = system: nutsedge (CYPES); assay type: in vivo, Cyperus esculentus
From the text: as §1, §2, §3, §4, §5

[22] = system: soybean (GLXMA); assay type: in vivo, Glycine max
From the text: as §1, §2, §3, §4, §5

[23] = system: wild pansy (VIOTR); assay type: in vivo, Viola tricolor
From the text: as §1, §2, §3, §4, §5

[24] = system: blackgrass (ALOMY); assay type: in vivo, Alopecurus myosuroides
From the text: as §1, §2, §3, §4, §5

[25] = system: velvetleaf (ABUTH); assay type: in vivo, Abutilon theophrasti
From the text: as §1, §2, §3, §4, §5

[26] = system: Russian thistle (SASKR); assay type: in vivo, Salsola kali
From the text: as §1, §2, §3, §4, §5

[27] = system: wild chamomile (MATCH); assay type: in vivo, Matricaria chamomilla
From the text: as §1, §2, §3, §4, §5

[28] = system: spring barley (HORVS); assay type: in vivo, Hordeum vulgare
From the text: as §1, §2, §3, §4, §5

[29] = system: spring wheat (TRZAS); assay type: in vivo, Triticum aestivum
From the text: as §1, §2, §3, §4, §5

Measured: % visual injury Ob

O=C(O)c1nc(C(Cl)(Cl)Cl)n(-c2ccc(Cl)cc2Cl)n1 [Fenchlorazole, fenchlorazole]
0%: [1]; 20 g/ha | [1]; 40 g/ha | [1]; 80 g/ha | [2]; 20 g/ha | [2]; 40 g/ha | [2]; 80 g/ha | [3]; 20 g/ha | [3]; 40 g/ha | [3]; 80 g/ha | [4]; 20 g/ha | [4]; 40 g/ha | [4]; 80 g/ha | [5]; 20 g/ha | [5]; 40 g/ha | [5]; 80 g/ha | [6]; 20 g/ha | [6]; 40 g/ha | [6]; 80 g/ha | [7]; 20 g/ha | [7]; 40 g/ha | [7]; 80 g/ha | [8]; 20 g/ha | [8]; 40 g/ha | [8]; 80 g/ha | [9]; 20 g/ha | [9]; 40 g/ha | [9]; 80 g/ha | [10]; 20 g/ha | [10]; 40 g/ha | [10]; 80 g/ha | [11]; 20 g/ha | [11]; 40 g/ha | [11]; 80 g/ha | [12]; 20 g/ha | [12]; 40 g/ha | [12]; 80 g/ha | [13]; 20 g/ha | [13]; 40 g/ha | [13]; 80 g/ha | [14]; 20 g/ha | [14]; 40 g/ha | [14]; 80 g/ha | [15]; 20 g/ha | [15]; 40 g/ha | [15]; 80 g/ha | [16]; 20 g/ha | [16]; 40 g/ha | [16]; 80 g/ha | [17]; 20 g/ha | [17]; 40 g/ha | [17]; 80 g/ha | [18]; 20 g/ha | [18]; 40 g/ha | [18]; 80 g/ha | [19]; 20 g/ha | [19]; 40 g/ha | [19]; 80 g/ha | [20]; 20 g/ha | [20]; 40 g/ha | [20]; 80 g/ha | [21]; 20 g/ha | [21]; 40 g/ha | [21]; 80 g/ha | [22]; 20 g/ha | [22]; 40 g/ha | [22]; 80 g/ha | [23]; 20 g/ha | [23]; 40 g/ha | [23]; 80 g/ha | [24]; 20 g/ha | [24]; 40 g/ha | [24]; 80 g/ha | [25]; 20 g/ha | [25]; 40 g/ha | [25]; 80 g/ha

CCOC(=O)c1nc(C(Cl)(Cl)Cl)n(-c2ccc(Cl)cc2Cl)n1 [Fenchlorazole-ethyl, fenchlorazole-ethyl]
0%: [26]; 10 g/ha | [26]; 20 g/ha | [26]; 40 g/ha | [27]; 10 g/ha | [27]; 20 g/ha | [27]; 40 g/ha | [16]; 10 g/ha | [16]; 20 g/ha | [16]; 40 g/ha | [28]; 10 g/ha | [28]; 20 g/ha | [28]; 40 g/ha | [29]; 10 g/ha | [29]; 20 g/ha | [29]; 40 g/ha
